Reference: patent publication US10738093B2, “Discovery of cationic nonribosomal peptides as Gram-negative antibiotics through global genome mining” (The Hong Kong University of Science and Technology, priority 2018, dated 2020)
Positions of bridges follow the written chain, without caps; N, C: chain ends. Non-standard residues stand in square brackets, D forms with d. Residues, ends and D or L forms follow the SMILES beside them. ξ: configuration not given here. *: point of attachment. Hexanoyl(4ξ-Me) = CCC(C)CCC(=O)*; dOrn = NCCC[C@@H](N)C(=O)O; Orn = NCCC[C@H](N)C(=O)O

How the values were obtained:
[1] = test system: Escherichia coli ATCC 25922; experiment: Resistance acquisition during serial passaging; type: cell-based; settings: serial passaging at subinhibitory concentrations over 30 days
Method: Escherichia coli ATCC 25922 was inoculated into MHB overnight at 37° C. with continuous shaking. Cells were diluted 10,000 times in MHB to about 1×10^6 c.f.u./mL. […] Plates with bacteria were incubated at 37° C. without shaking. […] This process was repeated for 30 d, and the final MIC was confirmed by the same antibacterial assay described above. The experiment was performed in quadruplicate, and on each day, the sample that developed the highest resistance was measured to plot the curve.

[2] = test system: P. aeruginosa PAO1; experiment: Atomic force microscopy of treated P. aeruginosa; type: cell-based, Pseudomonas aeruginosa
Method: The samples were then centrifuged at 8000 g for 10 min at 4° C., and the pellet was washed twice in 100 lpL of apyrogenic water. The bacteria resuspended in 50 μL of apyrogenic water were applied to mica disks and dried overnight at 28° C. before imaging. Atomic force micrographs were recorded on a Veeco Mulitmode AFM with NanoScope III controller operating in contact mode. The data were analyzed with NanoScope Analysis software v.1.40 (Veeco, USA). Scans were acquired at 25° C. at the rates of 1.0 Hz and 256 samples per line resolution. Downstream image processing and analysis were performed using NanoScope software (Bruker). Height images were flattened to compensate for cell curvature, and topographical sections were used to generate two-dimensional reconstructions of surface texture.

[3] = test system: E. coli ATCC 25922; experiment: Neutropenic mouse thigh infection model; type: in vivo, Escherichia coli
Method: In vivo activities of brevicidine and laterocidine were tested using the mouse thigh infection model. Animal studies were performed by Pharmacology Discovery Services Taiwan Ltd. (Taipei, Taiwan) in general accordance with standard guidelines on animal welfare in an AAALAC-accredited facility. The protocol was reviewed and approved by the Institutional Animal Care and Use Committee. Groups of five female specific-pathogen-free ICR (CD-1) mice weighing 22±2 g (˜5 weeks of age) were used. Animals were immunosuppressed with two intraperitoneal injections of cyclophosphamide, the first at 150 mg/kg 4 d before infection (day −4) and the second at 100 mg/kg 1 d before infection (day −1). On day 0, animals were inoculated intramuscularly (0.1 ml/thigh) in the right thigh with an E. coli ATCC 25922 suspension. Vehicle (10% DMSO, 1% Tween 80, 0.9% NaCl) and antibiotics were then subcutaneously injected 2 h and 8 h later. Due to limited amount of compounds 1-2, only one concentration of 1(30 mg/kg) or 2 (15 mg/kg) was used in this study. At 26 h after inoculation, animals were euthanized by CO2 asphyxiation before the muscle of the right thigh was harvested from each test animal. The removed muscle was homogenized in 5 mL of PBS, pH 7.4, with a polytron homogenizer. Homogenates in the amount of 0.1 mL were used for serial tenfold dilutions and plated onto a nutrient agar medium for colony count (c.f.u./g) determination.

In the case of `CCC(C)CCC(=O)N[C@H](CC(N)=O)C(=O)N[C@H](Cc1ccc(O)cc1)C(=O)N[C@H](Cc1c[nH]c2ccccc12)C(=O)N[C@H](CCCN)C(=O)N[C@@H](CCCN)C(=O)NCC(=O)N[C@H](CCCN)C(=O)N[C@@H](Cc1c[nH]c2ccccc12)C(=O)N[C@@H]1C(=O)N[C@@H]([C@@H](C)CC)C(=O)NCC(=O)N[C@H](CO)C(=O)O[C@@H]1C` (stereo partly drawn) [Compound 1, 4-Methyl-Hexanoyl-D-Asn-D-Tyr-D-Trp-D-Orn-Orn-Gly-D-Orn-Trp-Thr-Ile-Gly-Ser (cyclized via lactone formation between Thr and the C-terminus)] ({Hexanoyl(4ξ-Me)}-[dN][dY][dW][dOrn][Orn]G[dOrn]WTIG[dS]; ester 9-C), the development of resistance [1] is reported as “development of resistance was not observed”, the “cell morphology by AFM” value [2] is reported as “lost their regular rod-like shape and became lumpy and rugged” and the “bactericidal efficacy in mouse thigh infection (viable bacteria)” value ([3]; brevicidine 30 mg/kg or laterocidine 15 mg/kg, 2 times, after 26 h) is reported as “reduced numbers of viable bacteria”. For the same compound, the “reduction of c.fu. in thigh compared to the vehicle control” value ([3]; mice, 30 mg/kg subcutaneously, two doses, at 24 h) was 5 log10.
